Assay results from ChEMBL document CHEMBL5723582, “Data for DCP probe T-10430” (2024).

Tests used:
Details in all cases: Compound concentration 1.0 uM
[1] = biological target: 5-hydroxytryptamine receptor 5A (Homo sapiens) (UniProt P47898); experiment: RLU of HTR5 at 1.0 µM in the […] PRESTO-Tango GPCRome screen
[2] = biological target: 5-hydroxytryptamine receptor 1F (Homo sapiens) (UniProt P30939); experiment: RLU of HTR1F at 1.0 µM in the […] PRESTO-Tango GPCRome screen
[3] = biological target: Metabotropic glutamate receptor 5 (Homo sapiens) (UniProt P41594); experiment: RLU of GRM5 at 1.0 µM in the Aequorin PRESTO-Tango GPCRome screen
[4] = biological target: Adenosine receptor A1 (Homo sapiens) (UniProt P30542); experiment: RLU of ADORA1 at 1.0 µM in the […] PRESTO-Tango GPCRome screen
[5] = biological target: 5-hydroxytryptamine receptor 1D (Homo sapiens) (UniProt P28221); experiment: RLU of HTR1D at 1.0 µM in the […] PRESTO-Tango GPCRome screen
[6] = biological target: Probable G-protein coupled receptor 142 (Homo sapiens) (UniProt Q7Z601); experiment: RLU of GPR142 at 1.0 µM in the […] PRESTO-Tango GPCRome screen
[7] = biological target: Melatonin-related receptor (Homo sapiens) (UniProt Q13585); experiment: RLU of GPR50 at 1.0 µM in the […] PRESTO-Tango GPCRome screen
[8] = biological target: Probable G-protein coupled receptor 150 (Homo sapiens) (UniProt Q8NGU9); experiment: RLU of GPR150 at 1.0 µM in the […] PRESTO-Tango GPCRome screen
[9] = biological target: CX3C chemokine receptor 1 (Homo sapiens) (UniProt P49238); experiment: RLU of CX3C1 at 1.0 µM in the […] PRESTO-Tango GPCRome screen
[10] = biological target: G-protein coupled receptor 3 (Homo sapiens) (UniProt P46089); experiment: RLU of GPR3 at 1.0 µM in the […] PRESTO-Tango GPCRome screen
[11] = biological target: Prostaglandin D2 receptor 2 (Homo sapiens) (UniProt Q9Y5Y4); experiment: RLU of GPR44 at 1.0 µM in the […] PRESTO-Tango GPCRome screen
[12] = biological target: Adhesion G protein-coupled receptor E5 (Homo sapiens) (UniProt P48960); experiment: RLU of CD97 at 1.0 µM in the […] PRESTO-Tango GPCRome screen
[13] = biological target: Metabotropic glutamate receptor 8 (Homo sapiens) (UniProt O00222); experiment: RLU of GRM8 at 1.0 µM in the Aequorin PRESTO-Tango GPCRome screen
[14] = biological target: C-C chemokine receptor type 3 (Homo sapiens) (UniProt P51677); experiment: RLU of CCR3 at 1.0 µM in the […] PRESTO-Tango GPCRome screen
[15] = biological target: Succinate receptor 1 (Homo sapiens) (UniProt Q9BXA5); experiment: RLU of SUCNR1 at 1.0 µM in the […] PRESTO-Tango GPCRome screen
[16] = biological target: Platelet-activating factor receptor (Homo sapiens) (UniProt P25105); experiment: RLU of PTAFR at 1.0 µM in the […] PRESTO-Tango GPCRome screen
[17] = biological target: Type-2 angiotensin II receptor (Homo sapiens) (UniProt P50052); experiment: RLU of AGTR2 at 1.0 µM in the […] PRESTO-Tango GPCRome screen
[18] = biological target: P2Y purinoceptor 11 (Homo sapiens) (UniProt Q96G91); experiment: RLU of P2RY11 at 1.0 µM in the […] PRESTO-Tango GPCRome screen
[19] = biological target: Metabotropic glutamate receptor 1 (Homo sapiens) (UniProt Q13255); experiment: RLU of GRM1 at 1.0 µM in the Aequorin PRESTO-Tango GPCRome screen
[20] = biological target: Probable G-protein coupled receptor 32 (Homo sapiens) (UniProt O75388); experiment: RLU of GPR32 at 1.0 µM in the […] PRESTO-Tango GPCRome screen
[21] = biological target: Metabotropic glutamate receptor 7 (Homo sapiens) (UniProt Q14831); experiment: RLU of GRM7 at 1.0 µM in the Aequorin PRESTO-Tango GPCRome screen
[22] = biological target: G-protein coupled receptor family C group 6 member A (Homo sapiens) (UniProt Q5T6X5); experiment: RLU of GPRC6A at 1.0 µM in the […] PRESTO-Tango GPCRome screen
[23] = biological target: Histamine H1 receptor (Homo sapiens) (UniProt P35367); experiment: RLU of HRH1 at 1.0 µM in the Aequorin PRESTO-Tango GPCRome screen
[24] = biological target: Lutropin-choriogonadotropic hormone receptor (Homo sapiens) (UniProt P22888); experiment: RLU of LHCGR at 1.0 µM in the […] PRESTO-Tango GPCRome screen
[25] = biological target: Hydroxycarboxylic acid receptor 1 (Homo sapiens) (UniProt Q9BXC0); experiment: RLU of HCA1 at 1.0 µM in the Aequorin PRESTO-Tango GPCRome screen
[26] = biological target: N-formyl peptide receptor 2 (Homo sapiens) (UniProt P25090); experiment: RLU of FPR2 at 1.0 µM in the […] PRESTO-Tango GPCRome screen
[27] = biological target: Beta-3 adrenergic receptor (Homo sapiens) (UniProt P13945); experiment: RLU of ADRB3 at 1.0 µM in the […] PRESTO-Tango GPCRome screen
[28] = biological target: Trace amine-associated receptor 2 (Homo sapiens) (UniProt Q9P1P5); experiment: RLU of TAAR2 at 1.0 µM in the […] PRESTO-Tango GPCRome screen
[29] = biological target: Metabotropic glutamate receptor 2 (Homo sapiens) (UniProt Q14416); experiment: RLU of GRM2 at 1.0 µM in the Aequorin PRESTO-Tango GPCRome screen
[30] = biological target: Proteinase-activated receptor 4 (Homo sapiens) (UniProt Q96RI0); experiment: RLU of F2RL3 at 1.0 µM in the […] PRESTO-Tango GPCRome screen
[31] = biological target: Probable G-protein coupled receptor 152 (Homo sapiens) (UniProt Q8TDT2); experiment: RLU of GPR152 at 1.0 µM in the […] PRESTO-Tango GPCRome screen
[32] = biological target: Probable G-protein coupled receptor 173 (Homo sapiens) (UniProt Q9NS66); experiment: RLU of GPR173 at 1.0 µM in the […] PRESTO-Tango GPCRome screen
[33] = biological target: Atypical chemokine receptor 3 (Homo sapiens) (UniProt P25106); experiment: RLU of CXCR7 at 1.0 µM in the […] PRESTO-Tango GPCRome screen
[34] = biological target: Hydroxycarboxylic acid receptor 2 (Homo sapiens) (UniProt Q8TDS4); experiment: RLU of HCA2 at 1.0 µM in the Aequorin PRESTO-Tango GPCRome screen
[35] = biological target: G-protein coupled receptor 143 (Homo sapiens) (UniProt P51810); experiment: RLU of GPR143 at 1.0 µM in the […] PRESTO-Tango GPCRome screen

Sequence of Trace amine-associated receptor 2 (Homo sapiens) (Q9P1P5 whole entry): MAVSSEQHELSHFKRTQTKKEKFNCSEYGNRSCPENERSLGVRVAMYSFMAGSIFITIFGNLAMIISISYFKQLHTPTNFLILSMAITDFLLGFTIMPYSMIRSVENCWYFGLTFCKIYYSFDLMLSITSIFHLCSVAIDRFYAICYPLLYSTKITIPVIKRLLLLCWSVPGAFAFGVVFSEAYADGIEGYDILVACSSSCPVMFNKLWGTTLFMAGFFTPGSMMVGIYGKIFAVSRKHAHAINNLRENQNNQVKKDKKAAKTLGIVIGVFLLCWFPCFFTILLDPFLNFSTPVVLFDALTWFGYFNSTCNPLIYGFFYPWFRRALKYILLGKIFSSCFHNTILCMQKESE
Sequence of Type-2 angiotensin II receptor (Homo sapiens) (P50052 whole entry): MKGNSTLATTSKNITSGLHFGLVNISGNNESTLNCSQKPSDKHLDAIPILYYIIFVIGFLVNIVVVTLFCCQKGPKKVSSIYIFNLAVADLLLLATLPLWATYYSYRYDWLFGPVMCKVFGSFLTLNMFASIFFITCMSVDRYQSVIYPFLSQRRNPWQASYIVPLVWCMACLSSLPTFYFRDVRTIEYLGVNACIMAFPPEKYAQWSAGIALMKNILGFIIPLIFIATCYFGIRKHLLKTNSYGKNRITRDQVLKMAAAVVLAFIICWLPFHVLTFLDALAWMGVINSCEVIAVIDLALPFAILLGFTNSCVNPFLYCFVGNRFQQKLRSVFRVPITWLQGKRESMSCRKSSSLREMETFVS
Sequence of Hydroxycarboxylic acid receptor 2 (Homo sapiens) (Q8TDS4 whole entry): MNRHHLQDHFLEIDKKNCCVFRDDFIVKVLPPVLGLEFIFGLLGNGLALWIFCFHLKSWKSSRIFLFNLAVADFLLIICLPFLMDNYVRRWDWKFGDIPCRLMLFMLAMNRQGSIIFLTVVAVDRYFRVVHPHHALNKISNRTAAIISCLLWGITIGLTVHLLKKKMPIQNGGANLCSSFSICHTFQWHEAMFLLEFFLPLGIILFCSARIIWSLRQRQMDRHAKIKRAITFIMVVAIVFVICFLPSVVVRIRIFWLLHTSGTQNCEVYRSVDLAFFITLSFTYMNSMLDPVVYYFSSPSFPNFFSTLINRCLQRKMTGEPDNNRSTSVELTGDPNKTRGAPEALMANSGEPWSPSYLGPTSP
Sequence of Histamine H1 receptor (Homo sapiens) (P35367 whole entry): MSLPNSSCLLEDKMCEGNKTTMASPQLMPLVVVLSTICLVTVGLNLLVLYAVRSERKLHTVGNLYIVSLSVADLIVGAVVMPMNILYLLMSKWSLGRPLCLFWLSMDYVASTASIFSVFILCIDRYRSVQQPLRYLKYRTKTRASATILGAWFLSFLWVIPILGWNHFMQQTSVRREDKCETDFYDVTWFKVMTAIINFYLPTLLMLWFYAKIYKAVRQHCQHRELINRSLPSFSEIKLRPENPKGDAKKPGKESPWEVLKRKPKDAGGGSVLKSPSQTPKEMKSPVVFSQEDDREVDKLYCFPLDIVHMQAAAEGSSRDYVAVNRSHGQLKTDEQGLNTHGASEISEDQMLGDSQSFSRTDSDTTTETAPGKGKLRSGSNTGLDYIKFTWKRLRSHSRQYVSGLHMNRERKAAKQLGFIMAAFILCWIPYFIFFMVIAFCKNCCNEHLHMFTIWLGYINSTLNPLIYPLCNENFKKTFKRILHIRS
Sequence of 5-hydroxytryptamine receptor 1F (Homo sapiens) (P30939 whole entry): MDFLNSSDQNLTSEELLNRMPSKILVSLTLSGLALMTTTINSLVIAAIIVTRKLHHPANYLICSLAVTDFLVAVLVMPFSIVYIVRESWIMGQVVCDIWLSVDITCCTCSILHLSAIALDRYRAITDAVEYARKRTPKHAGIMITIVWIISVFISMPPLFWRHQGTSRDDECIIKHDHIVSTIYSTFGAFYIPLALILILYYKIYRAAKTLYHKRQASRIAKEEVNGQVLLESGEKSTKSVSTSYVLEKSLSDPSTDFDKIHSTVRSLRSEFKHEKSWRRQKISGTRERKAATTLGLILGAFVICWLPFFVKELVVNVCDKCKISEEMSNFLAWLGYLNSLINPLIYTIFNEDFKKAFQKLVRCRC
Sequence of Metabotropic glutamate receptor 1 (Homo sapiens) (Q13255 19-1194 limits assumed): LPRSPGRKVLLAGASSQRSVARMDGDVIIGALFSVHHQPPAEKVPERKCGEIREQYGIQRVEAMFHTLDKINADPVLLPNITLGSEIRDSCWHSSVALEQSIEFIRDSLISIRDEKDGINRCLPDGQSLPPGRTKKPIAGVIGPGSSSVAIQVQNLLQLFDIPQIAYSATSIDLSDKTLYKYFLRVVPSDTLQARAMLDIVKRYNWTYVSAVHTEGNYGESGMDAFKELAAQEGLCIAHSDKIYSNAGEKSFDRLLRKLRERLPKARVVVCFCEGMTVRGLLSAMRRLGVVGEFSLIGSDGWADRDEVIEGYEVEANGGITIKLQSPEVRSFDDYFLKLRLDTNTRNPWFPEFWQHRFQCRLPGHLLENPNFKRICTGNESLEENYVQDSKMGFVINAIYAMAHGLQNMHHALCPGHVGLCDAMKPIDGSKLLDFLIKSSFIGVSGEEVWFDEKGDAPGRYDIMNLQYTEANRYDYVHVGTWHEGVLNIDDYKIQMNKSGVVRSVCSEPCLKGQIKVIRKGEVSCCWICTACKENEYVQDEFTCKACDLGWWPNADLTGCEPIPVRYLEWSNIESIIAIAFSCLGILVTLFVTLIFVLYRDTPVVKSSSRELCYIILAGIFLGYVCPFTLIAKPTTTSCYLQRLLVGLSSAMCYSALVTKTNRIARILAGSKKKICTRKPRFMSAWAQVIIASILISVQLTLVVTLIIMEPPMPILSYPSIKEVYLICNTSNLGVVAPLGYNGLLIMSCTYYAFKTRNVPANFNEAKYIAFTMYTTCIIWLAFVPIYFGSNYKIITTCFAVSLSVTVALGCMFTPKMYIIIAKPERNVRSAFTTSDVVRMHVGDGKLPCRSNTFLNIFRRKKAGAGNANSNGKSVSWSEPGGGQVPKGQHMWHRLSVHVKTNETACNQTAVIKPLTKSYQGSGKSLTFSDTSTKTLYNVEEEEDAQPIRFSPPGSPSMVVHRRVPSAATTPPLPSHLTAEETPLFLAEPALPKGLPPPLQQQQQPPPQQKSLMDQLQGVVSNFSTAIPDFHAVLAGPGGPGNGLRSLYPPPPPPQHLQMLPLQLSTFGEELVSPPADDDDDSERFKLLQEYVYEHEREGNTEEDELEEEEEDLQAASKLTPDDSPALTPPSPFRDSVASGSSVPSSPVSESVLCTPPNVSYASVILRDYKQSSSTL
Sequence of Succinate receptor 1 (Homo sapiens) (Q9BXA5 whole entry): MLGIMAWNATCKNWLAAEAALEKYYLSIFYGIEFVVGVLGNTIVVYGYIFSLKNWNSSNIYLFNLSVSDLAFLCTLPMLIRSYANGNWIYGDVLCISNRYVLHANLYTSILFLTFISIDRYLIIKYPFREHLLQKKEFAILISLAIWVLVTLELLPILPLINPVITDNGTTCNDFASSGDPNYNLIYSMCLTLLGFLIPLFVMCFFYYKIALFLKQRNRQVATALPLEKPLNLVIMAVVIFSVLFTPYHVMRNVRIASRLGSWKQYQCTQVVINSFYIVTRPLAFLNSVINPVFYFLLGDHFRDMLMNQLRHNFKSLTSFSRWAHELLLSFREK
Sequence of Hydroxycarboxylic acid receptor 1 (Homo sapiens) (Q9BXC0 whole entry): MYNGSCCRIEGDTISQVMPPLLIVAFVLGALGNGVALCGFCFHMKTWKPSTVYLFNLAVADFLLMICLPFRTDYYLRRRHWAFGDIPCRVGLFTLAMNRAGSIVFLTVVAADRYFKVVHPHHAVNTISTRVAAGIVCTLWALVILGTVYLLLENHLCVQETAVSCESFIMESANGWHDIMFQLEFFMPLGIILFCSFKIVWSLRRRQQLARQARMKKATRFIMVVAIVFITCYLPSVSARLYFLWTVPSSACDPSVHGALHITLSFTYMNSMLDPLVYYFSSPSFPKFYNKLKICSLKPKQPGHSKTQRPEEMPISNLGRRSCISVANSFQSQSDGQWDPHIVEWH
Sequence of Melatonin-related receptor (Homo sapiens) (Q13585 whole entry): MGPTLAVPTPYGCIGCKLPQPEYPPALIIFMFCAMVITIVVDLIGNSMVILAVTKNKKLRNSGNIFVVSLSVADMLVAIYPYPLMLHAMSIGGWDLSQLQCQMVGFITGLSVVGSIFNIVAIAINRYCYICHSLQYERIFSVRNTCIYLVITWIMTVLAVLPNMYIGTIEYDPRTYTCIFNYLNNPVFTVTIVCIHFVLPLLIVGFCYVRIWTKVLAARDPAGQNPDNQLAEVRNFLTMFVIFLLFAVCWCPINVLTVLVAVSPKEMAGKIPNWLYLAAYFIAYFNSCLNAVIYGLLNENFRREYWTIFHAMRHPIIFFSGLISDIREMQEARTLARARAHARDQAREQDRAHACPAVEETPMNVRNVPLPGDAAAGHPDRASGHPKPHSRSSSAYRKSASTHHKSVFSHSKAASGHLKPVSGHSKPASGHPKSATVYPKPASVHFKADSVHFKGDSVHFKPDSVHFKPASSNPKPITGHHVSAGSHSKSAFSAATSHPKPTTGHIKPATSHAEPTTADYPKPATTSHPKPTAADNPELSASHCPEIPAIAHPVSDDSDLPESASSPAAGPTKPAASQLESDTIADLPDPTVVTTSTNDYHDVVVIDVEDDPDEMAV
Sequence of Probable G-protein coupled receptor 173 (Homo sapiens) (Q9NS66 whole entry): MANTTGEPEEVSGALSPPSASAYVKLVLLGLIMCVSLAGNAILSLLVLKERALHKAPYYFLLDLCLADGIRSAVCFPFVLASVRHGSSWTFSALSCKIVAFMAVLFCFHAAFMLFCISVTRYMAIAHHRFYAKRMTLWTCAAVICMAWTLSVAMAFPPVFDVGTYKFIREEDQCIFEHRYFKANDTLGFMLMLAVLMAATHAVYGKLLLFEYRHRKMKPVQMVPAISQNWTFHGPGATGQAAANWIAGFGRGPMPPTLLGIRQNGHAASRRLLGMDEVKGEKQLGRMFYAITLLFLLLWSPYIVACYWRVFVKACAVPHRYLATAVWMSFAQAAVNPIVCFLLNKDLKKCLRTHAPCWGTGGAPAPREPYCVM

RLU [1]: -1880 | RLU [2]: -3470 | RLU [3]: -10100 | RLU [4]: 6200 | RLU [5]: -12300 | RLU [6]: 2920 | RLU [7]: 435000 | RLU [8]: -1600 | RLU [9]: -3290 | RLU [10]: -1780 | RLU [11]: -285 | RLU [12]: -895 | RLU [13]: -4060 | RLU [14]: 2420 | RLU [15]: 1540 | RLU [16]: 82.9 | RLU [17]: 5320 | RLU [18]: -216 | RLU [19]: -511 | RLU [20]: 5660 | RLU [21]: 6950 | RLU [22]: -9110 | RLU [23]: 13500 | RLU [24]: 154 | RLU [25]: 583 | RLU [26]: 31.8 | RLU [27]: 12400 | RLU [28]: 390 | RLU [29]: -1460 | RLU [30]: 125 | RLU [31]: -70 | RLU [32]: -36.4 | RLU [33]: -7340 | RLU [34]: -133 | RLU [35]: -2070
SMILES: CCCCC(=O)N1CC2(C1)CN(c1ccccc1-c1nnn[nH]1)C2
